# Legend:
# [1] = system: Staphylococcus aureus; assay: Antimicrobial activity against Staphylococcus aureus Newman assessed as inhibition of bacterial growth incubated for 16 to 20 hrs by CLSI protocol based method; format: functional; settings: time 16-20 hrs
# [2] = system: Staphylococcus aureus; assay: Antimicrobial activity against methicillin resistant Staphylococcus aureus A252 assessed as inhibition of bacterial growth incubated for 16 to 20 hrs by CLSI protocol based method; format: functional; settings: time 16-20 hrs
# [3] = system: Staphylococcus aureus; assay: Antimicrobial activity against methicillin resistant Staphylococcus aureus USA300 assessed as inhibition of bacterial growth incubated for 16 to 20 hrs by CLSI protocol based method; format: functional; settings: time 16-20 hrs
# [4] = system: Staphylococcus aureus; assay: Antimicrobial activity against methicillin resistant Staphylococcus aureus C5269 assessed as inhibition of cell growth in the presence of oxacillin at 1/8 times of MIC by microdilution method; format: functional
# [5] = system: Staphylococcus aureus; assay: Antimicrobial activity against methicillin resistant Staphylococcus aureus C3212 assessed as inhibition of cell growth in the presence of oxacillin at 1/8 times of MIC by microdilution method; format: functional
# [6] = system: Staphylococcus aureus; assay: Antimicrobial activity against methicillin resistant Staphylococcus aureus K118 assessed as inhibition of cell growth in the presence of oxacillin at 1/4 times of MIC by microdilution method; format: functional
# [7] = system: Staphylococcus aureus; assay: Antimicrobial activity against methicillin resistant Staphylococcus aureus C5282 assessed as inhibition of cell growth in the presence of oxacillin at 1/4 times of MIC by microdilution method; format: functional
# [8] = system: Staphylococcus aureus; assay: Antimicrobial activity against methicillin resistant Staphylococcus aureus C4058 assessed as inhibition of cell growth in the presence of oxacillin at 1/8 times of MIC by microdilution method; format: functional
# [9] = system: Staphylococcus aureus; assay: Antimicrobial activity against methicillin resistant Staphylococcus aureus C4058 assessed as inhibition of cell growth in the presence of oxacillin at 1/2 times of MIC by microdilution method; format: functional
# [10] = system: Staphylococcus aureus; assay: Antimicrobial activity against methicillin resistant Staphylococcus aureus C5380 assessed as inhibition of cell growth in the presence of oxacillin at 1/4 times of MIC by microdilution method; format: functional
# [11] = system: Staphylococcus aureus; assay: Antimicrobial activity against methicillin resistant Staphylococcus aureus C3212 assessed as inhibition of cell growth in the presence of oxacillin at 1/4 times of MIC by microdilution method; format: functional
# [12] = system: Staphylococcus aureus; assay: Antimicrobial activity against methicillin resistant Staphylococcus aureus C5382 assessed as inhibition of cell growth in the presence of oxacillin at 1/2 times of MIC by microdilution method; format: functional
# [13] = system: Staphylococcus aureus; assay: Antimicrobial activity against methicillin resistant Staphylococcus aureus C3787 assessed as inhibition of cell growth in the presence of oxacillin at 1/2 times of MIC by microdilution method; format: functional
# [14] = system: Staphylococcus aureus; assay: Antimicrobial activity against methicillin resistant Staphylococcus aureus C5177 assessed as inhibition of cell growth in the presence of oxacillin at 1/8 times of MIC by microdilution method; format: functional
# [15] = system: Staphylococcus aureus; assay: Antimicrobial activity against methicillin resistant Staphylococcus aureus C5171 assessed as inhibition of cell growth in the presence of oxacillin at 1/4 times of MIC by microdilution method; format: functional
# [16] = system: Staphylococcus aureus; assay: Antimicrobial activity against methicillin resistant Staphylococcus aureus C5294 assessed as inhibition of cell growth in the presence of oxacillin at 1/8 times of MIC by microdilution method; format: functional
# [17] = system: Staphylococcus aureus; assay: Antimicrobial activity against methicillin resistant Staphylococcus aureus C5380 assessed as inhibition of cell growth in the presence of oxacillin at 1/2 times of MIC by microdilution method; format: functional
# [18] = system: Staphylococcus aureus; assay: Antimicrobial activity against methicillin resistant Staphylococcus aureus C5269 assessed as inhibition of cell growth in the presence of oxacillin at 1/4 times of MIC by microdilution method; format: functional
# [19] = system: Staphylococcus aureus; assay: Antimicrobial activity against methicillin resistant Staphylococcus aureus C5171 assessed as inhibition of cell growth in the presence of oxacillin at 1/8 times of MIC by microdilution method; format: functional
# [20] = system: Staphylococcus aureus; assay: Antimicrobial activity against methicillin resistant Staphylococcus aureus C4058 assessed as inhibition of cell growth in the presence of oxacillin at 1/4 times of MIC by microdilution method; format: functional
# [21] = system: Staphylococcus aureus; assay: Antimicrobial activity against methicillin resistant Staphylococcus aureus C5282 assessed as inhibition of cell growth in the presence of oxacillin at 1/8 times of MIC by microdilution method; format: functional
# [22] = system: Staphylococcus aureus; assay: Antimicrobial activity against methicillin resistant Staphylococcus aureus C3787 assessed as inhibition of cell growth in the presence of oxacillin at 1/4 times of MIC by microdilution method; format: functional
# [23] = system: Staphylococcus aureus; assay: Antimicrobial activity against methicillin resistant Staphylococcus aureus C5177 assessed as inhibition of cell growth in the presence of oxacillin at 1/2 times of MIC by microdilution method; format: functional
# [24] = system: Staphylococcus aureus; assay: Antimicrobial activity against methicillin resistant Staphylococcus aureus C5380 assessed as inhibition of cell growth in the presence of oxacillin at 1/8 times of MIC by microdilution method; format: functional
# [25] = system: Staphylococcus aureus; assay: Antimicrobial activity against methicillin resistant Staphylococcus aureus C3787 assessed as inhibition of cell growth in the presence of oxacillin at 1/8 times of MIC by microdilution method; format: functional
# [26] = system: Staphylococcus aureus; assay: Antimicrobial activity against methicillin resistant Staphylococcus aureus C5382 assessed as inhibition of cell growth in the presence of oxacillin at 1/4 times of MIC by microdilution method; format: functional
# [27] = system: Staphylococcus aureus; assay: Antimicrobial activity against methicillin resistant Staphylococcus aureus C3212 assessed as inhibition of cell growth in the presence of oxacillin at 1/2 times of MIC by microdilution method; format: functional
# [28] = system: Staphylococcus aureus; assay: Antimicrobial activity against methicillin resistant Staphylococcus aureus C5177 assessed as inhibition of cell growth in the presence of oxacillin at 1/4 times of MIC by microdilution method; format: functional
# [29] = system: Staphylococcus aureus; assay: Antimicrobial activity against methicillin resistant Staphylococcus aureus C5171 assessed as inhibition of cell growth in the presence of oxacillin at 1/2 times of MIC by microdilution method; format: functional
# [30] = system: Staphylococcus aureus; assay: Antimicrobial activity against methicillin resistant Staphylococcus aureus C5294 assessed as inhibition of cell growth in the presence of oxacillin at 1/2 times of MIC by microdilution method; format: functional
# [31] = system: Staphylococcus aureus; assay: Antimicrobial activity against methicillin resistant Staphylococcus aureus K118 assessed as inhibition of cell growth in the presence of oxacillin at 1/8 times of MIC by microdilution method; format: functional
# [32] = system: Staphylococcus aureus; assay: Antimicrobial activity against methicillin resistant Staphylococcus aureus C5294 assessed as inhibition of cell growth in the presence of oxacillin at 1/4 times of MIC by microdilution method; format: functional
# [33] = system: Staphylococcus aureus; assay: Antimicrobial activity against methicillin resistant Staphylococcus aureus C5382 assessed as inhibition of cell growth in the presence of oxacillin at 1/8 times of MIC by microdilution method; format: functional
# [34] = system: Staphylococcus aureus; assay: Antibacterial activity against methicillin resistant Staphylococcus aureus assessed as inhibition of bacterial growth; format: functional, organism-based
compound,measurement,setting,value
O=C(Nc1nnc(-c2ccc(F)cc2)o1)c1cccc(C(F)(F)F)c1,MIC,[1],0.7 µg/mL
same,MIC,[2],0.7 µg/mL
same,MIC,[3],0.35 µg/mL
FC(F)(F)c1ccc(Oc2ccc(-c3noc(-c4ccc5[nH]ccc5c4)n3)cc2)cc1,MIC,[4],≤ 0.03 µg/mL
same,MIC,[5],≤ 0.03 µg/mL
same,MIC,[6],≤ 0.03 µg/mL
same,MIC,[7],≤ 0.03 µg/mL
same,MIC,[8],≤ 0.03 µg/mL
same,MIC,[9],≤ 0.03 µg/mL
same,MIC,[10],≤ 0.03 µg/mL
same,MIC,[11],≤ 0.03 µg/mL
same,MIC,[12],≤ 0.03 µg/mL
same,MIC,[13],≤ 0.03 µg/mL
same,MIC,[14],< 0.03 µg/mL
same,MIC,[15],≤ 0.03 µg/mL
same,MIC,[16],≤ 0.03 µg/mL
same,MIC,[17],≤ 0.03 µg/mL
same,MIC,[18],≤ 0.03 µg/mL
same,MIC,[19],≤ 0.03 µg/mL
same,MIC,[20],≤ 0.03 µg/mL
same,MIC,[21],≤ 0.03 µg/mL
same,MIC,[22],≤ 0.03 µg/mL
same,MIC,[23],≤ 0.03 µg/mL
same,MIC,[24],≤ 0.03 µg/mL
same,MIC,[25],≤ 0.03 µg/mL
same,MIC,[26],≤ 0.03 µg/mL
same,MIC,[27],≤ 0.03 µg/mL
same,MIC,[28],≤ 0.03 µg/mL
same,MIC,[29],≤ 0.03 µg/mL
same,MIC,[30],≤ 0.03 µg/mL
same,MIC,[31],≤ 0.03 µg/mL
same,MIC,[32],≤ 0.03 µg/mL
same,MIC,[33],≤ 0.03 µg/mL
"2-((phenylbismuthino)thio)-5-(2-(p-tolyl)thiazol-4-yl)-1,3,4-oxadiazole",MIC,[34],1100 nM

# Reference: ChEMBL document CHEMBL5241069, “A key review on oxadiazole analogs as potential methicillin-resistant Staphylococcus aureus (MRSA) activity: Structure-activity relationship studies” (Eur J Med Chem, 2021)
